Data as given in US9416144B2, “Benzoxazine oxazolidinone compound, preparation method and application thereof” (priority 2012, dated 2016).
≈ marks a conversion by molar mass, not a printed value. Where “and” joins values, the source holds several entries; their conditions need not be identical. Equal entries are not always repeated. Where two headings read alike, the source gives them in different places. One block for each compound: values may come before it.

Tests used:
Enterococcus (6 strains) = assay: In vitro antibacterial activity, MIC by agar double dilution method; assay type: cell-based; settings: clinical isolates, 35° C. 16 hrs
Excerpt: (§1) Experimental method: The agar double dilution method (Antimicrob. Agents and Chemother, 40, 1996, 720-726) was used to determine the minimum inhibitory concentration (MIC) of the series of compounds of the invention and the positive control drug linezolid for the test strains. The multipoint inoculation system (Denley A400) was employed to inoculate the bacteria on the agar plate surface with different concentrations of drugs; inoculation amount on each point was about 10^6 CFU/mL. The plates were incubated at 35° C. for 16 hrs before the results were observed. The lowest drug concentration contained in the Petri dish without bacterial growth was used as the minimum inhibitory concentration (MIC value) of the drug fir that strain.
(§2) Test strains: All the test strains were clinically isolated pathogens which were collected from the Nanjing region, and they were re-identified by routine methods before use. 31 strains of the clinically isolated pathogens were chosen, including 6 strains of Enterococcus, 5 Staphylococcus aureus sensitive strains; 5 Staphylococcus epidermidis sensitive strains; 6 Staphylococcus aureus resistant strains; 5 Staphylococcus epidermidis resistant strains; and 4 Streptococcus pneumoniae resistant strains.
(§3) Compounds to be tested were first added 2 ml of DMSO to help them fully dissolved, then added sterile double distilled water to the desired concentration; to all the Petri dish with added drug liquid were added 20 mL MIT medium which was heat-melted to be liquid-like, to make the final drug concentration in the Petri dish to be 64, 32, 16, 8, 4, 2, 1, 0.5, 0.25, 0.125, 0.0625, and 0.031 μg/mL.
(§4) The positive control group was LZ (linezolid, brand name Zyvox, approved by the FDA in 2000 to be firstly sold in the United States, which is the first and also the only one of oxazolidinone antibacterial drugs allowed to enter clinical application).

[1] = test system: Streptococcus pneumoniae resistant strains (4 strains); assay: as above; assay type: cell-based; settings: clinical isolates
Excerpt: as §1, §2, §3, §4

[2] = test system: Staphylococcus epidermidis resistant strains (5 strains); assay: as above; assay type: cell-based; settings: clinical isolates
Excerpt: as §1, §2, §3, §4

[3] = test system: Staphylococcus aureus sensitive strains (5 strains); assay: as above; assay type: cell-based; settings: clinical isolates
Excerpt: as §1, §2, §3, §4

[4] = test system: Staphylococcus aureus resistant strains (6 strains); assay: as above; assay type: cell-based; settings: clinical isolates
Excerpt: as §1, §2, §3, §4

[5] = test system: Staphylococcus epidermidis sensitive strains (5 strains); assay: as above; assay type: cell-based; settings: clinical isolates
Excerpt: as §1, §2, §3, §4

[6] = In vivo pharmacokinetic assays in rats (intragastric and intravenous), plasma Compound 14 by LC-MS/MS; design: species or system SD rats; settings: rats
[7] = as above; design: species or system SD rats
Experimental: Two routes of administration (intragastric administration and intravenous injection) were employed.
(§5) Intragastric administration: Four healthy SD rats, male, weight 200-250 g, were dosed 15 mg/kg; the delivery volume was 10 ml/kg, prepared with 0.5% CMC-Na. The rats were fasted for 12 hrs before administration, free water-drinking. 0.3 ml of venous blood was taken from the posterior venous plexus of rats to heparinized tubes at 0.25, 0.5, 1.0, 2.0, 3.0, 4.0, 5.0, 7.0, 9.0, 24, and 48 hrs after administration, centrifuged at 3500 rpm for 10 mins to separate the plasma, which was then stored at −20° C. for test.
as §5, with “Intravenous injection: Two” for “Intragastric administration: Four”, “200˜250” for “200-250”, “5” for “15”, “DMSO, Tween 80 and deionized water.” for “0.5% CMC-Na.”, “5 min, 15 min, and” for “0.25,”
The concentration of Compound 14 in plasma was determined by liquid chromatography tandem mass spectrometry.
In accordance with the above experimental methods, the inventor has determined the in vivo pharmacokinetic properties of phosphate (ester) disodium salt 37 of Compound 14 in rats.

[8] = male, SD, rat, in vivo, iv, 5 mg/kg, 5 mg/kg Compound 14 intravenous injection, average value
[9] = male, SD, rat, in vivo, po, 15 mg/kg, 15 mg/kg Compound 14 intragastric, average value
[10] = male, SD, rat, in vivo, po, 15 mg/kg, 15 mg/kg Compound 14 intragastric, individual animals No. 15-18
[11] = 5 mg/kg Compound 14 intravenous injection, individual animals No. 19-21, 5 mg/kg
[12] = 15 mg/kg Compound 14 intragastric, individual animals No. 15-18, 15 mg/kg

- melting point: 150 to 152 °C
- MIC (Enterococcus (6 strains)): 1 to 2 µg/mL (≈ 2.79 to 5.58 µM)
- MIC [1]: 1 to 2 µg/mL (≈ 2.79 to 5.58 µM)
- MIC [2]: 0.5 µg/mL (≈ 1.4 µM)
- MIC [3]: 0.5 to 1 µg/mL (≈ 1.4 to 2.79 µM)
- MIC [4]: 0.5 to 1 µg/mL (≈ 1.4 to 2.79 µM)
- MIC [5]: 0.5 µg/mL (≈ 1.4 µM)
SMILES: O=C1O[C@@H](CO)[C@@H]2COc3cc(-c4ccc(C(O)CO)nc4)ccc3N12 (stereo partly drawn) [Compound 4, (3R,3aS)-7-(6-(1,2-dihydroxylethyl)pyridin-3-yl)-3-(hydroxylmethyl)-3a,4-dihydrobenzo[b]oxazolo[3,4-d][1,4]oxazin-1(3H)-one]

- melting point: > 198 °C
- MIC (Enterococcus (6 strains)): 16 µg/mL (≈ 40.3 µM)
- MIC [1]: 2 to 8 µg/mL (≈ 5.03 to 20.1 µM)
- MIC [2]: 8 µg/mL (≈ 20.1 µM)
- MIC [3]: 2 to 4 µg/mL (≈ 5.03 to 10.1 µM)
- MIC [4]: 4 µg/mL (≈ 10.1 µM)
- MIC [5]: 2 to 4 µg/mL (≈ 5.03 to 10.1 µM)
SMILES: O=C1O[C@@H](CO)[C@@H]2COc3cc(-c4ccc(N5CCC(O)CC5)nc4)ccc3N12 [Compound 11, (3R,3aS)-3-(hydroxylmethyl)-7-(6-(4-hydroxylpiperidin-1-yl)pyridin-3-yl)-3a,4-dihydrobenzo[b]oxazolo[3,4-d][1,4]oxazin-1(3H)-one]

- melting point: 199 to 201 °C
- MIC (Enterococcus (6 strains)): 2 µg/mL (≈ 5.88 µM)
- MIC [1]: 8 to 16 µg/mL (≈ 23.5 to 47 µM)
- MIC [2]: 4 to 8 µg/mL (≈ 11.8 to 23.5 µM)
- MIC [3]: 2 to 4 µg/mL (≈ 5.88 to 11.8 µM)
- MIC [4]: 2 to 4 µg/mL (≈ 5.88 to 11.8 µM)
- MIC [5]: 4 µg/mL (≈ 11.8 µM)
SMILES: CC(=O)c1ccc(-c2ccc3c(c2)OC[C@H]2[C@H](CO)OC(=O)N32)cn1 [Compound 13, (3R,3aS)-7-(6-acetylpyridin-3-yl)-3-(hydroxylmethyl)-3a,4-dihydrobenzo[b]oxazolo[3,4-d][1,4]oxazin-1(3H)-one]

SMILES: CN1CC(c2ccc(-c3ccc4c(c3)OC[C@H]3[C@H](CO)OC(=O)N43)cn2)OC1=O (stereo partly drawn) [Compound 14, (3R,3aS)-3-(hydroxylmethyl)-7-(6-(3-methyl-2-oxazolidin-5-yl)pyridin-3-yl)-3a,4-dihydrobenzo[b]oxazolo[3,4-d][1,4]oxazin-1(3H)-one]
- AUC(0-inf) [6, 8]: 1560 ng·h/mL
- half-life [6, 8]: 151 ± 55.2 min
- AUC0-t ([6]; male, SD, rat, in vivo, iv, 5 mg/kg, 5 mg/kg Compound 14 intravenous injection, average value, read-out: AUC0-t): 1540 ± 54 ng·h/mL
- MRT ([6]; male, SD, rat, in vivo, iv, 5 mg/kg, 5 mg/kg Compound 14 intravenous injection, average value, read-out: MRT): 44.4 min
- AUC(0-inf) ([6]; male, SD, rat, in vivo, iv, 5 mg/kg, 5 mg/kg Compound 14 intravenous injection, individual animals No. 19-21): 1600 ng·h/mL
- AUC0-t ([6]; male, SD, rat, in vivo, iv, 5 mg/kg, 5 mg/kg Compound 14 intravenous injection, individual animals No. 19-21, read-out: AUC0-t): 1600 ng·h/mL
- MRT ([6]; male, SD, rat, in vivo, iv, 5 mg/kg, 5 mg/kg Compound 14 intravenous injection, individual animals No. 19-21, read-out: MRT): 36.6 min
- Vd ([6]; male, SD, rat, in vivo, iv, 5 mg/kg, 5 mg/kg Compound 14 intravenous injection, individual animals No. 19-21, read-out: Vss): 1.9 L/kg
- AUC(0-inf) [6, 9]: 2170 ng·h/mL
- Cmax [6, 9]: 809 ± 267 ng/mL
- Tmax [6, 9]: 1 ± 0.71 h
- AUC0-t ([6]; male, SD, rat, in vivo, po, 15 mg/kg, 15 mg/kg Compound 14 intragastric, average value, read-out: AUC0-t): 2070 ± 319 ng·h/mL
- MRT ([6]; male, SD, rat, in vivo, po, 15 mg/kg, 15 mg/kg Compound 14 intragastric, average value, read-out: MRT): 158 min
- half-life [6, 10]: 137 min
- AUC0-t ([6]; male, SD, rat, in vivo, po, 15 mg/kg, 15 mg/kg Compound 14 intragastric, individual animals No. 15-18, read-out: AUC0-t): 1620 ng·h/mL
- MRT ([6]; male, SD, rat, in vivo, po, 15 mg/kg, 15 mg/kg Compound 14 intragastric, individual animals No. 15-18, read-out: MRT): 202 min
- AUC0-t [6, 11]: 1490 ng·h/mL and 1526 ng·h/mL
- AUC0-∞ [6, 11]: 1510 ng·h/mL and 1555 ng·h/mL
- CLz [6, 11]: 3.12 L/h/kg and 3.31 L/h/kg and 3.22 L/h/kg
- MRT [6, 11]: 47.4 min and 49.2 min
- Vss [6, 11]: 2.62 L/kg and 2.64 L/kg
- t1/2 [6, 11]: 1.62 h and 2.46 h and 3.45 h
- F (absolute bioavailability) ([6]; 15 mg/kg Compound 14 intragastric vs 5 mg/kg intravenous, dose corrected): 44%
- MIC (Enterococcus (6 strains)): 1 to 2 µg/mL (≈ 2.52 to 5.03 µM)
- MIC [1]: 1 µg/mL (≈ 2.52 µM)
- MIC [2]: 0.25 to 1 µg/mL (≈ 0.629 to 2.52 µM)
- MIC [3]: 0.5 to 1 µg/mL (≈ 1.26 to 2.52 µM)
- MIC [4]: 0.5 to 1 µg/mL (≈ 1.26 to 2.52 µM)
- MIC [5]: 0.25 to 0.5 µg/mL (≈ 0.629 to 1.26 µM)
- AUC0-t [7, 12]: 2174 ng·h/mL and 2095 ng·h/mL and 2374 ng·h/mL
- AUC0-∞ [7, 12]: 2290 ng·h/mL and 2165 ng·h/mL and 2440 ng·h/mL
- Cmax [7, 12]: 474 ng/mL and 766 ng/mL and 878 ng/mL and 1117 ng/mL
- MRT [7, 12]: 2.93 h and 2.03 h and 2.23 h
- Tmax [7, 12]: 2.00 h and 0.50 h
- t1/2 [7, 12]: 1.64 h and 2.34 h and 1.45 h
- clearance ([7]; male, SD, rat, in vivo, 5 mg/kg Compound 14 intravenous injection, average value, read-out: CLz (plasma clearance) (converted)): 53.7 mL/min/kg
- bioavailability ([7]; male, SD, rat, in vivo, 15 mg/kg, 15 mg/kg Compound 14 intragastric vs 5 mg/kg intravenous, dose corrected, read-out: F (absolute bioavailability)): 44.8%
- Vd ([7]; male, SD, rat, in vivo, iv, 5 mg/kg, 5 mg/kg Compound 14 intravenous injection, average value, read-out: Vss (distribution volume)): 2.39 ± 0.42 L/kg
- half-life [7, 9]: 116 ± 27 min
- AUC(0-inf) [7, 10]: 1770 ng·h/mL
